The source of these data is US6034134A, “1-Amino-alkylcyclohexane NMDA receptor antagonists” (Merz + Co. GmbH & Co., priority 1998, dated 2000).

Broadly, the ED50 is the dose at which the effect has come halfway, by size or by number of responders. Usually IC50 stands for the concentration that gives 50% inhibition. Usually Ki stands for a measure of affinity in units of concentration, obtained from inhibition or displacement.

Structures are written as SMILES. Structures can show the parent of a compound that is named as a salt. Where two headings read alike, the source gives them in different places.

Data set [1] is described as follows: Maximal electroshock (MES)-induced convulsions in mice. Type of data set: in vivo. To be noted: for ED50: Mus musculus, ip, 0.5 h, read-out: MES ED50; for MES ED50: 30 min. The procedure:
(§1) NMR female mice (18-28 g) housed 5 per cage were used for the maximal electroshock (MES) and motor impairment tests. […] All compounds were dissolved in 0.9% saline.
(§2) The MES test was performed together with tests for myorelaxant action (traction reflex) and motor coordination (rotarod). For the traction reflex test mice were placed with their forepaws on a horizontal rod and were required to place all 4 paws on the wire within 10 seconds. To test ataxia (motor coordination) mice were placed on rotarod (5 rpm) and were required to remain on the rod for 1 minute. […] These tests were followed by MES (100 Hz, 0.5 second shock duration, 50 mA shock intensity, 0.9 ms impulse duration, Ugo Basile) applied through corneal electrodes. The presence of tonic convulsions was scored (tonic extension of hind paws with minimum angle to the body of 90°). The aim was to obtain ED50 s for all parameters scored (anticonvulsive activity and motor side effects) with use of the Litchfield Wilcoxon test for quantal dose responses. Division of the ED50 for side effects (ataxia or myorelaxation) by the ED50 for antagonism of electroshock convulsions was used as a therapeutic index (TI). […]

A further data set relates to cortical neurones. As to the kind of experiment: Excitotoxicity: glutamate toxicity in cultured cortical neurones (MTT). Type of data set: cell-based, rat. To be noted: Rattus norvegicus, Cortical neurone. The procedure:
Cortical neurones were obtained from cerebral cortices of 17/18 day old fetal rats (Wistar), in general following the dissociation procedure described by. After short trypsinization and gentle trituration with fire-polished Pasteur pipettes, the cell suspension was washed by centrifugation. Cells were suspended in serum-free Neurobasal medium with B27 supplement (GIBCO) before plating onto poly-L-lysine (Sigma; 0.2 mg/ml, 20 h, 4° C.) and laminin (Sigma; 2 μg/ml, 1 h, 37° C.)-coated 96-well plates (Falcon, Primaria) at a density of 5×10^4 cells/well. Cortical neurones were maintained at 37° C. in humidified 10% CO2 /90% air. […] The medium was changed first after 4 days in vitro and then every 4 days by replacing 2/3 of the medium with astrocyte-conditioned medium. Cortical neurones between day 12 and 14 in culture were used for the experiments.
New-born rat astrocytes were isolated non-enzymatically according to the method of [24]. Briefly, both hemispheres were dissected from 2-day-old rats, passed through an 80 μm gauze, and triturated with Pasteur pipettes. Cell suspension was made in Dulbecco's modified essential medium (DMEM, Gibco) supplemented with 10% fetal calf serum (FCS, Hyclone), 2 mM glutamine (Gibco) and 50 μg/ml gentamycin and transferred into untreated, plastic culture flasks (Corning; […]). Two days after plating the flasks were shaken for 10 minutes on a rotary platform (150 U/min) to remove microglial cells. The cultures were grown to confluency within 14 days, and the culture medium was changed twice weekly. Thereafter, the glial monolayers were extensively washed with serum-free Neurobasal medium (Gibco) to remove the serum. Flasks were then shaken several times to remove oligodendrocytes and neurones. To obtain conditioned medium from primary astrocytes, the cultures were incubated with fresh Neurobasal medium supplemented with B27 andglutamine. Every 2-3 days the conditioned medium was collected and replaced by fresh medium up to 4 times.
Exposure to EAA was performed in serum-free Neurobasal medium containing 100 μM glutamate and the drug to be tested. After 20 h of incubation, the cytotoxic effect was morphologically examined under a phase contrast microscope and biochemically quantified by measuring cell viability with the MTT test (Promega). This calorimetric assay measures the reduction of a tetrazolium component (MTT) into an insoluble formazan product by the mitochondria of living cells. After incubation of the cortical neurones with the dye solution for approximately 1-4 hours, a solubilization solution was added to lyse the cells and solubilize the colored product (incubation overnight at 37° C., 10% CO2, 90% RH). These samples were then read using an Elisa plate reader (Thermomax, MWG Biotech) at a wavelength of 570 nm. The amount of color produced was directly proportional to the number of viable cells.
(§3) IC50 s in patch clamp, excitotoxicity, and binding studies were calculated according to the four parameter logistic equation using the Grafit computer program (Erithacus Software, England). Ki value for binding studies were then determined according to Cheng and Prusoff. Binding values presented are means±SEM of 3-5 determinations (each performed in duplicate). […] Pearson product moment correlation analysis (Sigma Stat, Jandel Scientific) was used to compare in vitro potencies and in vivo anticonvulsant activity.

For data set [2] the following is noted: cited from earlier work; for side effects in humans: human, in vivo.
Data set [3] deals with NMDA receptor. The data set can be described thus: Patch clamp: NMDA-induced inward currents in cultured hippocampal neurones. Type of data set: cell-based, rat. The procedure:
Hippocampi were obtained from rat embryos (E20 to E21) and were then transferred to calcium and magnesium free Hank's buffered salt solution (Gibco) on ice. Cells were mechanically dissociated in 0.05% DNAase/0.3% ovomucoid (Sigma) following an 8 minute pre-incubation with 0.66% trypsin/0.1% DNAase (Sigma). The dissociated cells were then centrifuged at 18 ×g for 10 minutes, re-suspended in minimum essential medium (Gibco) and plated at a density of 150,000 cells cm^-2 onto poly-L-lysine (Sigma)-precoated plastic petri dishes (Falcon). The cells were nourished with NaHCO3 /HEPES-buffered minimum essential medium supplemented with 5% fetal calf serum and 5% horse serum (Gibco) and incubated at 37° C. with 5% CO2 at 95% humidity. […] Thereafter the medium was exchanged partially twice weekly.
Patch clamp recordings were made from these neurones with polished glass electrodes (4-6 m.OMEGA.) in the whole cell mode at room temperature (20-22° C.) with the aid of an EPC-7 amplifier (List). Test substances were applied by switching channels of a custom-made fast superfusion system with a common outflow (10-20 ms exchange times). The contents of the intracellular solution were as follows (mM): CsCl (120), TEACl (20), EGTA (10), MgCl2 (1), CaCl2 -(0.2), glucose (10), ATP(2), cAMP (0.25); pH was adjusted to 7.3 with CsOH or HC1. The extracellular solutions had the following basic composition (mM): NaCl (140), KCl (3), CaCl2 (0.2), glucose (10), HEPES (10), sucrose (4.5), tetrodotoxin (TTX 3*10^-4). Glycine (1 μM) was present in all solutions: a concentration sufficient to cause around 80-85% activation of glycineB receptors. Only results from stable cells were accepted for inclusion in the final analysis, i.e., following recovery of responses to NMDA by at least 75% of their depression by the antagonists tested.
as §3
(In general: In patch-clamp work, channel activity is measured electrically.)

The procedure of data set [4]: All animals were kept with water and food ad libitum under a 12 hour light-dark cycle (light on at 6 a.m.) and at a controlled temperature (20±0.5° C.). All e experiments were performed between 10 a.m. and 5 p.m. Tested agents were injected 30 min. i.p. before the induction of convulsions if not stated otherwise (see below). All compounds were dissolved in 0.9% saline.

For data set [5], the target named is NMDA receptor. As to the kind of experiment: [3H]-(+)-MK-801 binding to rat cortical membranes. To be noted: read-out: MK-801 Ki; Table 9; Cheng-Prusoff with Kd for MK-801 of […]. How it is done: Male Sprague-Dawley rats (200-250 g) were decapitated and their brains were removed rapidly. The cortex was dissected and homogenized in 20 volumes of ice-cold 0.32 M sucrose using a glass-Teflon homogenizer. The homogenate was centrifuged at 1000 ×g for 10 minutes. The pellet was discarded and the supernatant centrifuged at 20,000 ×g for 20 minutes. The resulting pellet was re-suspended in 20 volumes of distilled water and centrifuged for 20 minutes at 8000 ×g. Then the supernatant and the buffy coat were centrifuged three times (48,000 ×g for 20 minutes) in the presence of 50 mM Tris-HCl, pH 8.0. All centrifugation steps were carried out at 4° C. After resuspension in 5 volumes of 50 mM Tris-HCl, pH 8.0 the membrane suspension was frozen rapidly at -80° C. On the day of assay the membranes were thawed and washed four times by resuspension in 50 mM Tris-HCl, pH 8.0 and centrifugation at 48,000 ×g for 20 minutes. The final pellet was suspended in assay buffer. The amount of protein in the final membrane preparation was determined according to the method of Lowry with some modifications. The final protein concentration used for our studies was between 250-500 μg/ml.
Membranes were re-suspended and incubated in 50 mM Tris-HCl, pH 8.0. […] Incubations were terminated using a Millipore filter system. The samples were rinsed three times with 2.5 ml ice cold assay buffer over glass fiber filters obtained from Schleicher & Schuell under a constant vacuum. Filtration was performed as rapidly as possible. Following separation and rinse, the filters were placed into scintillation liquid (5 ml; Ultima Gold) and radio activity retained on the filters was determined with a conventional liquid scintillation counter (Hewlett Packard, Liquid Scintillation Analyser).
as §3

The nature of data set [6]: Rotarod test (motor coordination, ataxia) in mice, therapeutic index versus MES. Type of data set: in vivo. To be noted: mouse, in vivo, ip; ED50 for rotarod failure divided by ED50 for MES; read-out: TI Rot. The procedure:
All compounds were dissolved in 0.9% saline.
The MES test was performed together with tests for myorelaxant action (traction reflex) and motor coordination (rotarod). For the traction reflex test mice were placed with their forepaws on a horizontal rod and were required to place all 4 paws on the wire within 10 seconds. To test ataxia (motor coordination) mice were placed on rotarod (5 rpm) and were required to remain on the rod for 1 minute. […] These tests were followed by MES (100 Hz, 0.5 second shock duration, 50 mA shock intensity, 0.9 ms impulse duration, Ugo Basile) applied through corneal electrodes. The presence of tonic convulsions was scored (tonic extension of hind paws with minimum angle to the body of 90°). The aim was to obtain ED50 s for all parameters scored (anticonvulsive activity and motor side effects) with use of the Litchfield Wilcoxon test for quantal dose responses. Division of the ED50 for side effects (ataxia or myorelaxation) by the ED50 for antagonism of electroshock convulsions was used as a therapeutic index (TI).
IC50 s in patch clamp, excitotoxicity, and binding studies were calculated according to the four parameter logistic equation using the Grafit computer program (Erithacus Software, England). Ki value for binding studies were then determined according to Cheng and Prusoff. […] Pearson product moment correlation analysis (Sigma Stat, Jandel Scientific) was used to compare in vitro potencies and in vivo anticonvulsant activity.
Background: In the rotarod test animals must keep their balance on a rotating rod.

Data set [7] is described as follows: Traction reflex test (myorelaxant action) in mice, therapeutic index versus MES. Type of data set: in vivo. To be noted: ED50 for traction reflex impairment divided by ED50 for MES. How it is done:
as §1, §2

Where [8] appears, read: Table 8, mice, i.p., 95% confidence limits in parentheses.
Setting [9] is: 20 h, read-out: Glut. Tox. IC50.
Setting [10] is: read-out: Patch Clamp IC50; Table 7; NMDA 200 μM with glycine 1 μM at -70 mV.
Setting [11] is: read-out: Patch Clamp IC50; Table 9; NMDA-induced currents.

With `NC12CC3CC(CC(C3)C1)C2` [Amantadine, reference compound], the ED50 in data set [1] came to 184 mg/kg. Besides, the “MES ED50” value in data set [1] (setting [8]) is reported as 184.0 (122-279) mg/kg. Moreover, the concentration for half-maximal inhibition (IC50) in the data set on cortical neurones (setting [9]) came to 20700 nM; in the data set with cortical neurones (read-out: Glut Tox IC50), 36900 nM; in the data set on NMDA receptor [3] (setting [10]) it was 71000 nM; with NMDA receptor [3] (setting [11]), 80800 nM. The “side effects in humans” value in data set [2] is given as “rarely produce side effects at the therapeutic doses”.
With `C[C@]12N[C@H](Cc3ccccc31)c1ccccc12` [MK-801, (+)-5-methyl-10,11-dihydro-5H-dibenzocyclohepten-5,10-imine maleate, reference compound], the ED50 in data set [1] is 0.16 mg/kg. The “MES ED50” value in data set [1] (setting [8]) is given as 0.16 (0.13-0.21) mg/kg. The half-maximal inhibitory concentration (IC50) stood at 12 nM in the data set with cortical neurones (setting [9]), 13 nM in the data set on cortical neurones (read-out: Glut Tox IC50), […] in the data set with NMDA receptor [3] (setting [10]) and […] in the data set on NMDA receptor [3] (setting [11]). Further, the “Min Lethality” value in data set [4] (i.p., minimal lethal dose) was more than 108 mg/kg. Moreover, the “side effects in humans” value in data set [2] is on record as “some psychotropic side effects were apparent at therapeutic doses”. The “therapeutic efficacy in epilepsy” value in data set [2] (initial clinical experience) was “poor”.
For the molecule `CC1(C)CC(C)(C)CC(C)(N2CCCC2)C1.Cl` [MRZ 2/705, N-(1,3,3,5,5-Pentamethylcyclohexyl) pyrrolidine hydrochloride], at NMDA receptor [5], the Ki is 7140 nM. The selectivity ratio at 0.5 h in data set [6] is 5.4; in data set [7] (mouse, in vivo, ip, read-out: TI Tract), 3.9. Further, the “Min Lethality” value in data set [4] (i.p., minimal lethal dose) is recorded as more than 50 mg/kg.
With `CC1(C)CC(C)(C)CC(C)(CCN)C1` [Mrz 2/662], in data set [1] (setting [8]), the ED50 was 30.5 mg/kg. Moreover, the Ki at NMDA receptor [5] was 3440 nM. Further, the IC50 came out at 530 nM with cortical neurones (Table 9, 100 μM glutamate, read-out: Glut Tox IC50) and 1500 nM in the data set with NMDA receptor [3] (Table 9; NMDA-induced currents; read-out: Patch Clamp IC50). Further, in data set [4] (mouse, in vivo, ip), the “Min Lethality” value is more than 40 mg/kg. Besides, in data set [7] (30 min), the “TI Tract” value came out at 1.0.
